In series [1] the test system is cGVHD. Conditions: in vivo; cited from earlier work.
Series [2] is described as follows: solubility of belumosudil mesylate. Format: physicochemical. The procedure:
The tablet film consists of polyvinyl alcohol, polyethylene glycol, talc, titanium dioxide and yellow iron oxide. Each 200 mg tablet is a pale yellow film-coated oblong tablet debossed with “KDM” on one side and “200” on the other side. Tablets are stored at room temperature, 20° C. to 25° C. (68° F. to 77° F.); excursions permitted from 15° C. and 30° C. (59° F. to 86° F.).

Where a name gives a salt, the structure may show the parent alone.

With `C=CC(=O)N1CCC[C@@H](n2nc(-c3ccc(Oc4ccccc4)cc3)c3c(N)ncnc32)C1` [ibrutinib], the “discontinuation rate because of TEAEs” value in series [1] is 43%.

As to `CC(C)NC(=O)COc1cccc(-c2nc(Nc3ccc4[nH]ncc4c3)c3ccccc3n2)c1` [Belumosudil mesylate, 2-{3-[4-(1H-indazol-5-ylamino)-2-quinazolinyl]phenoxy}-N-(propan-2-yl) acetamide methanesulfonate (1:1)], in series [2], the “solubility in DMF” value is “slightly soluble”, the “solubility in DMSO” value is “soluble”, the solubility in methanol result was “slightly soluble” and the solubility in water entry is listed as “practically insoluble”.

The values above are taken from patent publication US20260027116A1, “Methods of Treating Chronic Graft-Versus-Host Disease Following Allogeneic Hematopoietic Stem Cell Transplantation” (Kadmon Corporation, LLC, priority 2022, published 2026).
